Assay results as given in ChEMBL document CHEMBL1938305, “Antioxidative oligostilbenes from Caragana sinica” (Bioorg Med Chem Lett, 2012).

What was measured:
[1] = system: Radical scavenging activity; experiment: Antioxidant activity assessed as DPPH free radical scavenging activity after 30 mins by microplate reader assay; format: functional
[2] = Antioxidant activity assessed as inhibition of lipid peroxidation; format: functional

| Compound | IC50 [1] | IC50 [2] |
| --- | --- | --- |
| Oc1ccc(C2[C@H]3c4cc(O)cc(O)c4[C@@H](c4ccc(O)cc4)[C@@H]2c2cc(O)cc(O)c23)cc1 (stereo partly drawn) | > 200 µM | > 200 µM |
| Oc1ccc([C@H]2Oc3cc(O)cc4c3[C@@H]2c2cc(O)cc3c2[C@@H](c2cc(O)cc5c2[C@@H]4[C@H](c2ccc(O)cc2)O5)[C@H](c2ccc(O)cc2)O3)cc1 (relative stereo) | > 200 µM | > 200 µM |
| O=C(c1ccc(O)cc1)[C@H]1c2cc(O)cc(O)c2[C@@H](c2ccc(O)cc2)[C@H]1c1cc(O)cc(O)c1 [CARAPHENOL B] | 73.9 µM | 43.1 µM |
| COc1cc(O)cc2c1C(=O)C(O)(Cc1ccc(O)cc1)O2 (stereo not drawn) [CARPUSIN] | > 200 µM | > 200 µM |
| Oc1ccc([C@H]2Oc3cc(O)cc([C@@H]4[C@H](c5cc(O)cc(O)c5)[C@@H](c5ccc(O)cc5)O[C@H]4c4ccc(O)cc4)c3[C@@H]2c2cc(O)c3c(c2)[C@@H](c2cc(O)cc(O)c2)[C@H](c2ccc(O)cc2)O3)cc1 [KOBOPHENOL A] | > 200 µM | > 200 µM |

Now from value to compound:

| IC50 [1] | IC50 [2] | Compound |
| --- | --- | --- |
| > 200 µM | > 200 µM | Oc1ccc([C@H]2c3c(O)cc(O)cc3[C@H]3c4c(O)cc(O)cc4[C@@H]2[C@H]3c2ccc(O)cc2)cc1 |
| 165 µM | 128 µM | Oc1ccc([C@@H]2c3c(O)cc(O)cc3[C@H]3[C@H](c4ccc(O)cc4)c4c(O)cc(O)cc4[C@@H]23)cc1 (relative stereo) [PALLIDOL] |
|  | 12.5 µM | Cc1c(C)c2c(c(C)c1O)CC[C@@](C)(CCC[C@H](C)CCC[C@H](C)CCCC(C)C)O2 [ALPHA-TOCOPHEROL] |
| 57.2 µM |  | O=C1O[C@H]([C@@H](O)CO)C(O)=C1O [ASCORBIC ACID] |
| 92.1 µM | 30.1 µM | Oc1ccc(/C=C/c2cc(O)cc(O)c2)cc1 [RESVERATROL] |
